Data as given in ChEMBL document CHEMBL4145674, “Discovery of 3-Benzyl-1-( trans-4-((5-cyanopyridin-2-yl)amino)cyclohexyl)-1-arylurea Derivatives as Novel and Selective Cyclin-Dependent Kinase 12 (CDK12) Inhibitors” (J Med Chem, 2018).
pIC50: −log10 of the molar value.

How the values were obtained:
CDK8/Cyclin C = CDK8/Cyclin C (Homo sapiens, UniProt P49336); assay: Inhibition of GST-tagged human CDK8/CycC (04 to 109 residues) using kinase tracer 236 probe incubated for 60 mins by TR-FRET assay; format: protein-complex assay
[1] = target: Cyclin-dependent kinase 13/Cyclin-K (Homo sapiens, UniProt Q14004); assay: Inhibition of N-terminal FLAG-tagged human full-length CDK13 (1 to 1512 residues)/N-terminal His-tagged CycK (1 to 580 residues) expressed in Sf9 cells assessed as reduction in ATP-dependent ULight-4E-BP1 (Thr37/Thr46) substrate peptide phosphorylation pre-incubated for 60 mins by LANCE Ultra assay
CDK12/Cyclin K = CDK12/Cyclin K (Homo sapiens, UniProt Q9NYV4); assay: Inhibition of N-terminal FLAG-tagged human full-length CDK12 (1 to 1490 residues)/N-terminal His-tagged CycK (1 to 580 residues) expressed in Sf9 cells assessed as reduction in ATP-dependent ULight-4E-BP1 (Thr37/Thr46) substrate peptide phosphorylation pre-incubated for 60 mins by LANCE Ultra assay
CDK7/Cyclin H/MNAT1 = CDK7/Cyclin H/MNAT1 (Homo sapiens, UniProt P50613)
Description: Inhibition of GST-tagged human GST-tagged CDK7/CycH/MAT1 (04 to 108 residues) using kinase tracer 236 probe incubated for 60 mins by TR-FRET assay

CDK9/cyclin T1 = CDK9/cyclin T1 (Homo sapiens, UniProt P50750); format: protein-complex assay
Description: Inhibition of GST-tagged human CDK9/CycT1 (04 to 110 residues) assessed as reduction in ATP-dependent ULight-4E-BP1 (Thr37/Thr46) substrate peptide phosphorylation pre-incubated for 60 mins by LANCE Ultra assay

[2] = target: Cyclin-dependent kinase 12 (Homo sapiens, UniProt Q9NYV4); assay: Inhibition of CDK12 in human SK-BR-3 cells assessed as reduction in RNA polymerase 2 Ser2 phosphorylation incubated for 4 hrs by; format: cell-based
Sequence of Cyclin-dependent kinase 12 (Q9NYV4 whole entry): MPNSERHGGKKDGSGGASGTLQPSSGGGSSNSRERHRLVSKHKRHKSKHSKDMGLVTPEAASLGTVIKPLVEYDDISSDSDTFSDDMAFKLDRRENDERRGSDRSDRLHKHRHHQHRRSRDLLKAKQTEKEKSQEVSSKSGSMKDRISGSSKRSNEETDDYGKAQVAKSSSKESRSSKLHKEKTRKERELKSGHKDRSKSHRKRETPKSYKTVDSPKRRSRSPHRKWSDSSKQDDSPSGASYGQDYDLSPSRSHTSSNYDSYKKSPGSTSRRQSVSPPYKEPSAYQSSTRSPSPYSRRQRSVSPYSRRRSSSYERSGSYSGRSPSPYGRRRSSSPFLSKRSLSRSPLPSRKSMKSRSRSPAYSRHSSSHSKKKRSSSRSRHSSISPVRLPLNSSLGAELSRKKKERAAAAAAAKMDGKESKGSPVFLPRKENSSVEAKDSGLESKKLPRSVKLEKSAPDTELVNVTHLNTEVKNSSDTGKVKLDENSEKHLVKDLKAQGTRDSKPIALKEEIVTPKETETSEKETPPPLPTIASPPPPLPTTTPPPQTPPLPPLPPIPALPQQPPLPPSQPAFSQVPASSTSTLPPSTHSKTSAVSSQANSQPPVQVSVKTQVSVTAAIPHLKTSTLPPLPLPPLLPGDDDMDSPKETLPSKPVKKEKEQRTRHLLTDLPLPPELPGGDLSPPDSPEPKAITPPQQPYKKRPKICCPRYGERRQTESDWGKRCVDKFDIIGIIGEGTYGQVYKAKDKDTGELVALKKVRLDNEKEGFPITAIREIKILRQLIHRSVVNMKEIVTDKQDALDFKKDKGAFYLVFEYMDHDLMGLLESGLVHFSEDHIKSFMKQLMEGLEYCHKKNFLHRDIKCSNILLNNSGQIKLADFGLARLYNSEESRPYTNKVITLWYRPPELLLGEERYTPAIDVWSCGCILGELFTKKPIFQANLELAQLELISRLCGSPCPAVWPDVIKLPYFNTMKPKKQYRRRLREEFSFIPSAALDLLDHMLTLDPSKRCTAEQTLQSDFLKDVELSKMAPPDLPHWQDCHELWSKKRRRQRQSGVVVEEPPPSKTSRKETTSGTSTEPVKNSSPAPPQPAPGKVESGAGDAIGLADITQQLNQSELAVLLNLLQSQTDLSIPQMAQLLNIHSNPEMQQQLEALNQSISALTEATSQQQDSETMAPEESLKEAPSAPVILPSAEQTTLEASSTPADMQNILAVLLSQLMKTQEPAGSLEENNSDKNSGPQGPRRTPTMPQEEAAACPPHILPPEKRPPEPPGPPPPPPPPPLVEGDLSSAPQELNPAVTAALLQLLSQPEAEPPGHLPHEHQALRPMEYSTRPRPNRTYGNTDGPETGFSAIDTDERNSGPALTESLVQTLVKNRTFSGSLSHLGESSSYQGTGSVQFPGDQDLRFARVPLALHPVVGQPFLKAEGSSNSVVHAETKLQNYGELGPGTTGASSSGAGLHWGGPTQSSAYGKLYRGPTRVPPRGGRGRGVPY

Sequence of CDK7/Cyclin H/MNAT1 (P51946 whole entry): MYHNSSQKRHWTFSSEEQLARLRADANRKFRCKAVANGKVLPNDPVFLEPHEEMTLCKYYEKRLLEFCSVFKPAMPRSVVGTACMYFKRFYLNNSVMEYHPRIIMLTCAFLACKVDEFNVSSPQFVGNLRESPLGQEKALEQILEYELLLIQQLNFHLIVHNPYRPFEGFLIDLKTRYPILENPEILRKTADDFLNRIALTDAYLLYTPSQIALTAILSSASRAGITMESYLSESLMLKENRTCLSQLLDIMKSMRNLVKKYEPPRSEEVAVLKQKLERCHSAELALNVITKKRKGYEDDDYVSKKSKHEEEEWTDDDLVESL
Sequence of CDK7/Cyclin H/MNAT1 (P50613 whole entry): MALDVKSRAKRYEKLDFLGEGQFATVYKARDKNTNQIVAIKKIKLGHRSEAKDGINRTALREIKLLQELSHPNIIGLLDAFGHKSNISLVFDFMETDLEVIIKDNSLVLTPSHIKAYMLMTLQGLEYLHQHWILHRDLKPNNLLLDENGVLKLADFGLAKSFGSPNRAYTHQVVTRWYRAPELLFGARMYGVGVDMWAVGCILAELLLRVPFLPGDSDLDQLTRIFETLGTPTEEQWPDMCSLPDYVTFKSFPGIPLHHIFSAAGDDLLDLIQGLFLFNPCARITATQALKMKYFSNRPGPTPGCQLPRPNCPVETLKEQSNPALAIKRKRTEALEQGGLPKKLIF
Sequence of CDK7/Cyclin H/MNAT1 (P51948 whole entry, further chain): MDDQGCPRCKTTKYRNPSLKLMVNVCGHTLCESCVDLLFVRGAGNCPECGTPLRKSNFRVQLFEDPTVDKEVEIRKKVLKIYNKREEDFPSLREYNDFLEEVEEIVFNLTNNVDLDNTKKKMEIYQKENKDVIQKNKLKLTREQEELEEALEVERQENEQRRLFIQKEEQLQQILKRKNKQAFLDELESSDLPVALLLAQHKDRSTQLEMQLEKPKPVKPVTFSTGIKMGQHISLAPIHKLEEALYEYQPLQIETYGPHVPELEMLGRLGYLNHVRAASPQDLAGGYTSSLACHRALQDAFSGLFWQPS
Sequence of CDK12/Cyclin K (O75909 whole entry, the tested form may be a part): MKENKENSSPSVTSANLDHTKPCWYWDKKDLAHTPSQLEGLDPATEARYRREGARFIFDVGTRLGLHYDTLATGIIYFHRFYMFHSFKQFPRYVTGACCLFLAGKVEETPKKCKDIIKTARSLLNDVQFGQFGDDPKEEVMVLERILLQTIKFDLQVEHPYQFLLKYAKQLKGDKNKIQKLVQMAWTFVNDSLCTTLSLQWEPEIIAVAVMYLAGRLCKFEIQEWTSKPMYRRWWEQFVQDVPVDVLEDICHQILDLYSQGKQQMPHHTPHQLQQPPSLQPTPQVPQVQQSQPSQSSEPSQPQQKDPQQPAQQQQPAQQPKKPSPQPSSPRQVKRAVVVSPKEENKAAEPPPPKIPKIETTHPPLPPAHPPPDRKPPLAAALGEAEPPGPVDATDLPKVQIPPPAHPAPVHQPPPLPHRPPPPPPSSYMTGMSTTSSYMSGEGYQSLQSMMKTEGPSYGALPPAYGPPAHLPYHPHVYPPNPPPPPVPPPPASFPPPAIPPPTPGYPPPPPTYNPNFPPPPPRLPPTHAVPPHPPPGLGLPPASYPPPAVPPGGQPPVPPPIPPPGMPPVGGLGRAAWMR
Sequence of CDK12/Cyclin K (Q9NYV4 whole entry, the tested form may be a part): as the sequence (Q9NYV4 whole entry) above
Sequence of CDK9/cyclin T1 (O60563 whole entry): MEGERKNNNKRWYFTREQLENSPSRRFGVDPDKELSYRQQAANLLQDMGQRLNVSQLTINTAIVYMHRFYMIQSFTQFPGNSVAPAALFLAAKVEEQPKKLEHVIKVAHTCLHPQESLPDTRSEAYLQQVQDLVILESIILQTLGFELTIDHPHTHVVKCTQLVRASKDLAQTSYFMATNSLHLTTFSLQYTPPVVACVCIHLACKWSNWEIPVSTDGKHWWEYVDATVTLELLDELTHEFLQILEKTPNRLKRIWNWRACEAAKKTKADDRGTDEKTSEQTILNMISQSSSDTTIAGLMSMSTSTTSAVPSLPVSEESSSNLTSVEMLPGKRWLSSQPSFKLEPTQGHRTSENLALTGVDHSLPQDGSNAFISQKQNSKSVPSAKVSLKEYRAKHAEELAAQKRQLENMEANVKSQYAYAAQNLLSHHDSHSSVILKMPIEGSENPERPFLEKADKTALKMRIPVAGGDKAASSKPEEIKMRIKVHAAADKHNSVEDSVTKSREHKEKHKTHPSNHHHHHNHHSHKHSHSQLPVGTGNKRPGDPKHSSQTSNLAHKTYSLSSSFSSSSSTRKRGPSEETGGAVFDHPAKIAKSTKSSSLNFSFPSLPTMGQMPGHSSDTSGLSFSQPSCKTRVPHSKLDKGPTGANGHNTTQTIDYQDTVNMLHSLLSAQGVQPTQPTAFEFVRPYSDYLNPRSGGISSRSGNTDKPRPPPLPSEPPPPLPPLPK
Sequence of CDK9/cyclin T1 (P50750 whole entry): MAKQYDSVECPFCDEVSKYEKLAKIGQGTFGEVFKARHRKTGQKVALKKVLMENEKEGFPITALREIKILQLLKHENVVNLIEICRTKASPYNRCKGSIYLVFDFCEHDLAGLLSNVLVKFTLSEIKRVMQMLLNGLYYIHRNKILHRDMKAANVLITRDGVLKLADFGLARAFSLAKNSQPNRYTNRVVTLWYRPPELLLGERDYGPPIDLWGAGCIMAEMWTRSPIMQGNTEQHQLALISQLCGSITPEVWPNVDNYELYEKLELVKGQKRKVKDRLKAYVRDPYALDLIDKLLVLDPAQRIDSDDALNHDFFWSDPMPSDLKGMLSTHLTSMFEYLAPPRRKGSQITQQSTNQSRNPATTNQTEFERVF
Sequence of CDK8/Cyclin C (P49336 whole entry, the tested form may be a part): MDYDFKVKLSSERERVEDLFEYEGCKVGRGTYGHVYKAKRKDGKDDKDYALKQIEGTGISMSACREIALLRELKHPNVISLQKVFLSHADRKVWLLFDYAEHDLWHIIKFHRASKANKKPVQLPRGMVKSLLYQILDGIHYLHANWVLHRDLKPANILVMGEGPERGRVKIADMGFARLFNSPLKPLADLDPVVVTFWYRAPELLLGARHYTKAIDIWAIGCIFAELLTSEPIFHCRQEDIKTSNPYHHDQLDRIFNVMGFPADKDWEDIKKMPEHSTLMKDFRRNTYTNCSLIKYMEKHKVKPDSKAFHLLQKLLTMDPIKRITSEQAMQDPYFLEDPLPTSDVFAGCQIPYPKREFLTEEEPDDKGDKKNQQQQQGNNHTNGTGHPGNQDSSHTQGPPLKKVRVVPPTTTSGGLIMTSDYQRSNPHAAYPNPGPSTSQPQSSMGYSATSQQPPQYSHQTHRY
Sequence of CDK8/Cyclin C (P24863 whole entry, further chain, the tested form may be a part): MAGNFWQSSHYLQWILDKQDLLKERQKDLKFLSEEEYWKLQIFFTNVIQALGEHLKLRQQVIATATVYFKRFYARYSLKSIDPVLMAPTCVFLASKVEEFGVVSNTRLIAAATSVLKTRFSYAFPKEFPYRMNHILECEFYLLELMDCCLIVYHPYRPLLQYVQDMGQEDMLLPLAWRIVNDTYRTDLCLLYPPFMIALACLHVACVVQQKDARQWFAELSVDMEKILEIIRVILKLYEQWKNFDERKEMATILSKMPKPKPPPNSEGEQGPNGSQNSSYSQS

pIC50 (CDK8/Cyclin C) | pIC50 [1] | pIC50 (CDK12/Cyclin K) | pIC50 (CDK7/Cyclin H/MNAT1) | pIC50 (CDK9/cyclin T1) | pIC50 [2] | SMILES
< 5.00 | < 5.00 | < 4.52 | < 5.00 | < 4.52 |  | Cn1cc(-c2ccc(N(C(=O)NCc3ccccc3)[C@H]3CC[C@@H](Nc4ccc(C#N)cn4)CC3)cc2)cn1
 |  | 6.96 | 5.92 | 6.66 | 6.59 | CC(C)C(=O)OC[C@@H]1O[C@@H](n2cnc(N)c3c(C(N)=O)c(Br)nc2-3)[C@@H](O)[C@@H]1O
